Several values for one entry are separate records, joined by “and”; a condition that tells them apart may be missing. Equal entries are not always repeated. Where two headings read alike, the source gives them in different places.
What was measured:
[1] = NHE1 plasma assay (pH recovery, BCECF/FLIPR) with rabbit plasma; format: cell-based, human; details: male, New Zealand, rabbit, plasma, oral, 0.3 % in chow; rabbits on 0.3% cariporide chow, 1 week; inferred from complete NHE1 block
Excerpt: (§1) Plasma samples were obtained from male New Zealand rabbits (2.5-3.5 kg) maintained on standard rabbit chow with 0.3% cariporide (NHE inhibitor). A blood sample was taken after 1 week from the auricular artery for the determination of the plasma concentrations of cariporide. Determination of plasma concentration of cariporide was done as described below:
(§2) The NHE-Gene (SLC9A1, Franchi A. et al., Proc Natl Acad Sci USA., 1986 December; 83(24):9388-92.) was cloned into the pMamneo-vector and introduced into LAP1 (mouse LTK-cell line) cells. Stable cell lines were generated from transfected cells.
(§3) LAP1 (mouse LTK-cell line) cells stably expressing human NHE1 (hNHE1) were seeded with a density of 25.000 cells/well/100 μl medium (Iscove-medium, 10% FCS, 2 mM L-glutamine, 100 u/ml penicilline/streptomycine, 50 μg/ml gentamicine, 400 μg/ml G418) on black, clear bottom 96-well microplates (Costar®, Corning Inc., Corning, N.Y.). Cells were incubated overnight at 37° C., 5% CO2 and 90% humidity. The medium was discarded prior to measurement and 100 μl/well dye buffer (20 mM HEPES, pH 7.4 adjusted with KOH, 20 mM NH4Cl, 115 mM choline chloride, 1 mM MgCl2, 1 mM CaCl2, 5 mM KCl, 5 mM glucose, 5 μM BCECF) were added. After incubation for 20 min at 37° C. the cells were washed 3-times with Na^+-free washing buffer (5 mM HEPES, pH 7.4 adjusted with KOH, 133.8 mM choline chloride, 4.7 mM KCl, 1.25 mM CaCl2, 1.25 mM MgCl2, 0.97 mM K2HPO4, 0.23 mM KH2PO4, 5 mM glucose), leaving 90 μl of washing buffer per well. pH-recovery was measured with a FLIPR (Fluorometric Imaging Plate Reader, Molecular Devices, Sunnyvale, Calif.; laser power 0.3 W, aperture 4, measuring interval 2 s, time of measurement 120 s). During measurement 90 μl of plasma solution (90% animal plasma from animals feeded w/o antagonist, 10% Na^+-buffer: 10 mM HEPES, pH 7.4 adjusted with KOH, 133.8 mM NaCl, 4.7 mM KCl, 1.25 mM MgCl2, 1.25 mM CaCl2, 0.97 mM Na2HPO4, 0.23 mM NaH2PO4, 5 mM glucose) were added to the wells. Due to the Na^+ in the buffer NHE1 starts to transport H^+ out of the cells, leading to an increase in intracellular pH and fluorescence. High control: plasma solution without antagonist. Low control: plasma solution with 20 μM cariporide (10 μM final concentration). Cariporide was added to the plasma after preparation. […] For calibration different amounts of cariporide and the tested antagonists were added to plasma after preparation to determine the efficiency in animal plasma.
(§4) For calculation of NHE1 activity, the increase in fluorescence between the 12th and 32nd s was calculated. The high control was set as 100% activity whereas the low control determines 0% NHE1 activity. %-activity of the samples was calculated by a comparison to the controls.

human NHE1 (hNHE1) = target: T1, human NHE1 (hNHE1) (Homo sapiens, UniProt P19634); experiment: as above; format: cell-based
T1 construct: expressed in transfected cells
Excerpt: as §1, §2, §3, §4

hNHE1 [2] = target: T2, hNHE1 (Homo sapiens, UniProt P19634); experiment: NHE1 plasma assay (pH recovery, BCECF/FLIPR) with plasma of treated rats; format: cell-based
T2 construct: expressed in transfected cells
Procedure: The animals used for the plasma studied were pretreated as follows: • Animals: Male Sprague Dawley rats (Moellegard) • Body weight: 320-360 g • Anesthesia: Thiopental-Na (Trapanal 100 mg/kg i.p.) • Respiration: 40 Vol % O2 • Blood gases: 32-40 mmHg pCO2 • 80-100 mmHg PO2 • pH 7.35-7.49 • SaO2>96% • Ischemia: 20 min occlusion of LAD (left anterior descending coronary artery) • Reperfusion: 60 min • Body temperature: 36.5° C. • Measurement parameters: myocardial infarct mass mean arterial blood pressure heart rate • compound plasma levels • Blood samples: single probe, 85 min after i.v. injection (end of reperfusion) • or • single probe 200 min after oral treatment (end of reperfusion)
Different amounts of plasma were prepared from groups I to VII 85 mins after injection (groups I-IV, VII) or 200 mins after treatment (groups V-VI) and from untreated rats. Plasma was stored at −20° C. until the analysis was performed.
(§5) For the cell-based determination of NHE1 ligand efficiency, LAP1 (mouse LTK-cell line) cells stably expressing hNHE1 (see Example 1) were seeded at a density of 25.000 cells/well/100 μl medium (Iscove-medium, 10% FCS, 2 mM L-glutamine, 100 μ/ml penicilline/streptomycine, 50 μg/ml gentamicine, 400 μg/ml G418) on black, clear bottom 96-well microplates (Costar®, Corning Inc., Corning, N.Y.). Cells were incubated overnight at 37° C., 5% CO2 and 90% humidity. The medium was discarded prior to measurement and 100 μl/well dye buffer (20 mM HEPES, pH 7.4 adjusted with KOH, 20 mM NH4Cl, 115 mM choline chloride, 1 mM MgCl2, 1 mM CaCl2, 5 mM KCl, 5 mM glucose, 5 μM BCECF) were added. After incubation for 20 min at 37° C. the cells were washed 3-times with Na^+-free washing buffer (5 mM HEPES, pH 7.4 adjusted with KOH, 133.8 mM choline chloride, 4.7 mM KCl, 1.25 mM CaCl2, 1.25 mM MgCl2, 0.97 mM K2HPO4, 0.23 mM KH2PO4, 5 mM glucose), leaving 90 μl of washing buffer per well. The plasma probes were prepared as followed: 10% (v/v) Na^+-buffer (10 mM HEPES, pH 7.4 adjusted with KOH, 133.8 mM NaCl, 4.7 mM KCl, 1.25 mM MgCl2, 1.25 mM CaCl2, 0.97 mM Na2HPO4, 0.23 mM NaH2PO4, 5 mM glucose) were added to 90% (v/v) rat plasma.
High controls (plasma solution without antagonist) and low controls (plasma solution with 20 μM cariporide, 10 μM final concentration) were prepared. […]
The pH-recovery was measured with a FLIPR (Fluorometric Imaging Plate Reader, Molecular Devices, Sunnyvale, Calif.; laser power 0.3 W, aperture 4, measuring interval 2 s, time of measurement 120 s). […]
For calculation of NHE1 activity, the increase in fluorescence between the 12th and 32nd s was calculated. […] Activity (%) of the samples was calculated by a comparison of the controls. Compound plasma levels were calculated in relation to the calibration curve.

hNHE1 [3] = target: T2, hNHE1; experiment: Calibration curve of NHE1 activity, compound dilution series in rat plasma; format: cell-based
Procedure: as §5, with “plasma. High controls (plasma solution without antagonist) and low controls (plasma solution with 20 μM cariporide, 10 μM final concentration) were prepared. A dilution series of cariporide and COMPOUND X in 10% (v/v) Na^+-buffer/90% (v/v) rat plasma was used for a calibration curve to calculate the compound concentration in the rat plasma probes FIGS. 1 and 2). The pH-recovery was measured with a FLIPR (Fluorometric Imaging Plate Reader, Molecular Devices, Sunnyvale, Calif.; laser power 0.3 W, aperture 4, measuring interval 2 s, time of measurement 120 s). During measurement 90 μl of plasma solution were added to the wells. For calculation of NHE1 activity, the increase in fluorescence between the 12th and 32nd s was calculated. The high control was set as 100% activity and the low control as 0% NHE1 activity. Activity (%) of the samples was calculated by a comparison of the controls. Compound plasma levels were calculated in relation to the calibration curve. Additionally, calibration curves were used to calculate the compound plasma levels in the probe sets.” for “plasma.”

[4] = rat plasma, 1 mg/kg i.v., 85 min after injection

T1 sequence (P19634 whole entry): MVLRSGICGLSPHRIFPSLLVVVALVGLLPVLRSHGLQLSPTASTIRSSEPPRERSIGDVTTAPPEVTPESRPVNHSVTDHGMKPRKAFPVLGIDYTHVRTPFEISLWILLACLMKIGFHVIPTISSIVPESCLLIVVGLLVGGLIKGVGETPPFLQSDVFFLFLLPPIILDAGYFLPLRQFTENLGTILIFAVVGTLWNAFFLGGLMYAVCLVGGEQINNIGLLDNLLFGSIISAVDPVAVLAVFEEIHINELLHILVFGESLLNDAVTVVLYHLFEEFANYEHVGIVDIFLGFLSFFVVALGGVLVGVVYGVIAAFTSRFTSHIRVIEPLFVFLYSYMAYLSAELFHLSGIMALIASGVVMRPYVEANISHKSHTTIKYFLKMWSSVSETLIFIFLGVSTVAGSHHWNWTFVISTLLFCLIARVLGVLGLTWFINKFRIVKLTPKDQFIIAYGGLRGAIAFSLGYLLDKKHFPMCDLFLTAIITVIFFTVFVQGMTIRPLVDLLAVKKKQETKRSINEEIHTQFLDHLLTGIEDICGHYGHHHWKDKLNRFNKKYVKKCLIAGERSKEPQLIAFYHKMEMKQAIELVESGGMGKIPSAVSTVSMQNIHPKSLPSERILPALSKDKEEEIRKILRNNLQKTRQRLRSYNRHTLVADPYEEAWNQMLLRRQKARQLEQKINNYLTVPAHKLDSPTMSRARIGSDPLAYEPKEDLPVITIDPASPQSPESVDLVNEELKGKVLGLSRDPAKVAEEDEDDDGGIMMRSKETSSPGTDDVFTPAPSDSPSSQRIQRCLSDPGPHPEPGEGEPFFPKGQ
T2 sequence (P19634 whole entry): as above

CC(C)c1ccc(C(=O)NC(=N)N)cc1S(C)(=O)=O [cariporide]
concentration at 1 week [1]: ≥ 10 µM | block of NHE1 activity (human NHE1 (hNHE1); 10 μM cariporide (final) added to plasma): complete block | Fluorescence increase measured between the 12th and 32nd s, Average (human NHE1 (hNHE1); low control: rabbit plasma with 10 μM cariporide, high control 14416): 631 | NHE1 Activity [%] (human NHE1 (hNHE1); plasma from individual rabbits on 0.3% cariporide chow, sample after 1 week, relative to high/low controls): −0.63% and −5.45% (2×) and −1.53% and −0.39% and −2.25% | block of NHE1 by plasma probes (human NHE1 (hNHE1); plasma from rabbits on 0.3% cariporide chow): complete block | rel. FI increase mean (hNHE1 [2]; low control: rat plasma solution with 10 μM final cariporide): 3110 | Activity [%] mean (hNHE1 [2]; low control: rat plasma with 10 μM final cariporide, set as 0% NHE1 activity): 0% | Activity [%] mean (hNHE1 [2]; [4]): 49.95% | rel. FI increase mean (hNHE1 [2]; [4]): 7392 | EC50 (hNHE1 [3]; calibration curve, dilution series in 90% rat plasma/10% Na+-buffer, LAP1 cells expressing hNHE1, read-out: calculated efficiency in rat plasma (EC50)): 115 nM | Fit parameter A of the calibration curve (hNHE1 [3]; rat plasma calibration curve): −7.947 | Fit parameter B of the calibration curve (hNHE1 [3]; rat plasma calibration curve): 86.547 | Fit parameter D of the calibration curve (hNHE1 [3]; rat plasma calibration curve): −1.239 | EC50 (hNHE1 [3]; rat plasma calibration curve, C corresponds to the EC50 (0.662 = 662 nM for compound X), read-out: Fit parameter C of the calibration curve): 189 nM

Reference: patent publication US8546102B2, “Methods for determining sodium-proton-exchanger ligand efficiency” (Sanofi, priority 2008, dated 2013)
